Data taken from the NIST ThermoML archive (doi:10.1021/je800110r).
± gives the expanded uncertainty stated by the source.

Conditions: Liquid, Vibrating tube method

CCCCCCCCCC [decane]
Conditions | mass density [kg/m3]
323.14 K, 29147 kPa | 730.4 ± 2.1
323.14 K, 29286 kPa | 730.6 ± 2.1
323.14 K, 29368 kPa | 730.6 ± 2.1
323.14 K, 29415 kPa | 730.5 ± 2.1
323.14 K, 29637 kPa | 730.8 ± 2.1
323.14 K, 29675 kPa | 730.8 ± 2.1
323.14 K, 29724 kPa | 730.9 ± 2.1
323.14 K, 29765 kPa | 730.8 ± 2.1
323.14 K, 29800 kPa | 730.9 ± 2.1
323.14 K, 29840 kPa | 731 ± 2.1
323.14 K, 29872 kPa | 731 ± 2.1
323.14 K, 29908 kPa | 730.9 ± 2.1
323.14 K, 29935 kPa | 731 ± 2.1
323.14 K, 29962 kPa | 730.9 ± 2.1
323.14 K, 29999 kPa | 731.1 ± 2.1
323.14 K, 30026 kPa | 731 ± 2.1
323.14 K, 30054 kPa | 731.1 ± 2.1
323.14 K, 30082 kPa | 731.1 ± 2.1
323.14 K, 30114 kPa | 731.1 ± 2.1
323.14 K, 30147 kPa | 731.1 ± 2.1
323.14 K, 30180 kPa | 731.2 ± 2.1
323.14 K, 30217 kPa | 731.1 ± 2.1
323.14 K, 30240 kPa | 731.2 ± 2.1
323.14 K, 30273 kPa | 731.2 ± 2.1
323.14 K, 30306 kPa | 731.2 ± 2.1
323.14 K, 30353 kPa | 731.3 ± 2.1
323.14 K, 30381 kPa | 731.3 ± 2.1
323.14 K, 30409 kPa | 731.3 ± 2.1
323.14 K, 30447 kPa | 731.3 ± 2.1
323.14 K, 30475 kPa | 731.3 ± 2.1
323.14 K, 30513 kPa | 731.3 ± 2.1
323.14 K, 30547 kPa | 731.4 ± 2.1
323.14 K, 30586 kPa | 731.4 ± 2.1
323.14 K, 30624 kPa | 731.4 ± 2.1
323.14 K, 30652 kPa | 731.6 ± 2.1
323.14 K, 30686 kPa | 731.6 ± 2.1
323.14 K, 30720 kPa | 731.5 ± 2.1
323.14 K, 30753 kPa | 731.7 ± 2.1
323.14 K, 30787 kPa | 731.5 ± 2.1
323.14 K, 30816 kPa | 731.5 ± 2.1
323.14 K, 30851 kPa | 731.7 ± 2.1
323.14 K, 30890 kPa | 731.5 ± 2.1
323.14 K, 30919 kPa | 731.6 ± 2.1
323.14 K, 30964 kPa | 731.6 ± 2.1
323.14 K, 30993 kPa | 731.6 ± 2.1
323.14 K, 31028 kPa | 731.6 ± 2.1
323.14 K, 31068 kPa | 731.8 ± 2.1
323.14 K, 31097 kPa | 731.8 ± 2.1
323.14 K, 31257 kPa | 731.9 ± 2.1
323.14 K, 31307 kPa | 732 ± 2.1
323.14 K, 31343 kPa | 731.9 ± 2.1
323.14 K, 31374 kPa | 732 ± 2.1
323.14 K, 31421 kPa | 732.1 ± 2.1
323.14 K, 31463 kPa | 732 ± 2.1
323.14 K, 31495 kPa | 732.1 ± 2.1
323.14 K, 31537 kPa | 732.1 ± 2.1
323.14 K, 31569 kPa | 732 ± 2.1
323.14 K, 31606 kPa | 732.1 ± 2.1
323.14 K, 31636 kPa | 732.2 ± 2.1
323.14 K, 31661 kPa | 732.2 ± 2.1
323.14 K, 31690 kPa | 732.1 ± 2.1
323.14 K, 31715 kPa | 732.2 ± 2.1
323.14 K, 31736 kPa | 732.2 ± 2.1
323.14 K, 31774 kPa | 732.2 ± 2.1
323.14 K, 31812 kPa | 732.3 ± 2.1
323.14 K, 31838 kPa | 732.2 ± 2.1
323.14 K, 31872 kPa | 732.3 ± 2.1
323.14 K, 31911 kPa | 732.5 ± 2.1
323.14 K, 31949 kPa | 732.3 ± 2.1
323.14 K, 31979 kPa | 732.3 ± 2.1
323.14 K, 32017 kPa | 732.4 ± 2.1
323.14 K, 32056 kPa | 732.4 ± 2.1
323.14 K, 32082 kPa | 732.5 ± 2.1
323.14 K, 32116 kPa | 732.5 ± 2.1
323.14 K, 32143 kPa | 732.5 ± 2.1
323.14 K, 32175 kPa | 732.5 ± 2.1
323.14 K, 32205 kPa | 732.5 ± 2.1
323.14 K, 32236 kPa | 732.4 ± 2.1
323.14 K, 32266 kPa | 732.6 ± 2.1
323.14 K, 32305 kPa | 732.5 ± 2.1
323.14 K, 32332 kPa | 732.6 ± 2.1
323.14 K, 32363 kPa | 732.6 ± 2.1
323.14 K, 32403 kPa | 732.7 ± 2.1
323.14 K, 32438 kPa | 732.7 ± 2.1
323.14 K, 32465 kPa | 732.8 ± 2.1
323.14 K, 32522 kPa | 732.8 ± 2.1
323.14 K, 32717 kPa | 732.9 ± 2.1
323.14 K, 32817 kPa | 733 ± 2.1
323.14 K, 32841 kPa | 733 ± 2.1
323.14 K, 32902 kPa | 733 ± 2.1
323.14 K, 32934 kPa | 733.1 ± 2.1
323.14 K, 32966 kPa | 732.9 ± 2.1
323.14 K, 32994 kPa | 733.1 ± 2.1
323.14 K, 33023 kPa | 733 ± 2.1
323.14 K, 33048 kPa | 733 ± 2.1
323.14 K, 33069 kPa | 733.1 ± 2.1
323.14 K, 33090 kPa | 733.2 ± 2.1
323.14 K, 33114 kPa | 733.2 ± 2.1
323.14 K, 33147 kPa | 733.2 ± 2.1
323.14 K, 33173 kPa | 733.2 ± 2.1
323.14 K, 33193 kPa | 733.3 ± 2.1
323.14 K, 33219 kPa | 733.3 ± 2.1
323.14 K, 33249 kPa | 733.2 ± 2.1
323.14 K, 33274 kPa | 733.3 ± 2.1
323.14 K, 33300 kPa | 733.3 ± 2.1
323.14 K, 33334 kPa | 733.3 ± 2.1
323.14 K, 33356 kPa | 733.2 ± 2.1
323.14 K, 33387 kPa | 733.4 ± 2.1
323.14 K, 33504 kPa | 733.4 ± 2.1
323.14 K, 33553 kPa | 733.5 ± 2.1
323.14 K, 33615 kPa | 733.5 ± 2.1
323.14 K, 33644 kPa | 733.5 ± 2.1
323.14 K, 33671 kPa | 733.6 ± 2.1
323.14 K, 33690 kPa | 733.5 ± 2.1
323.14 K, 33720 kPa | 733.5 ± 2.1
323.14 K, 33749 kPa | 733.6 ± 2.1
323.14 K, 33775 kPa | 733.6 ± 2.1
323.14 K, 33801 kPa | 733.6 ± 2.1
323.14 K, 33824 kPa | 733.6 ± 2.1
323.14 K, 33858 kPa | 733.7 ± 2.1
323.14 K, 33895 kPa | 733.7 ± 2.1
323.14 K, 33921 kPa | 733.8 ± 2.1
323.14 K, 33948 kPa | 733.7 ± 2.1
323.14 K, 33971 kPa | 733.8 ± 2.1
323.14 K, 34266 kPa | 733.9 ± 2.1
323.14 K, 34292 kPa | 734 ± 2.1
323.14 K, 34329 kPa | 733.9 ± 2.1
323.14 K, 34363 kPa | 733.9 ± 2.1
323.15 K, 688 kPa | 707.4 ± 2
323.15 K, 762 kPa | 707.5 ± 2
323.15 K, 781 kPa | 707.5 ± 2
323.15 K, 802 kPa | 707.6 ± 2
323.15 K, 828 kPa | 707.5 ± 2
323.15 K, 851 kPa | 707.6 ± 2
323.15 K, 875 kPa | 707.7 ± 2
323.15 K, 894 kPa | 707.6 ± 2
323.15 K, 924 kPa | 707.7 ± 2
